From patent US20230257373A1, “QUORUM SENSING INHIBITORS AND METHODS OF USE” (priority 2020, published 2023)
“And” between values parts separate entries of the source, which are not always exact repeats. Equal values may be shown once. Read-outs that look alike come from different tables or passages of the source.

Experiments:
Vibrio strains = assay: luxCDABE reporter across five Vibrio species; details: each Vibrio strain except V. cholerae
[1] = system: PluxC-gfp reporter in V. campbellii; assay: PluxC-gfp reporter in V. campbellii strains; details: Vibrio campbellii
V. campbellii = assay: Growth of V. campbellii with inhibitor; assay type: cell-based; details: high concentrations
From the text: (§1) Many sulfonamide-containing compounds are known to target the folate synthesis pathway in bacteria and inhibit growth (bacteriostatic), and thus these “sulfa drugs” have been used as broad-spectrum antibiotics for decades (Hammoudeh et al., 2013, Roland et al., 1979). […] We also tested the stability of the inhibitors in bacterial cultures and the timing of the inhibitory effect.

[2] = system: PluxC-gfp reporter in V. vulnificus; assay: PluxC-gfp reporter in V. vulnificus strains; details: Vibrio vulnificus
V. vulnificus = assay: Growth of V. vulnificus with inhibitor; assay type: cell-based; details: high concentrations
From the text: as §1

[3] = system: PluxC-gfp reporter in V. coralliilyticus; assay: PluxC-gfp reporter in V. coralliilyticus strains
V. campbellii LuxR [4] = target: T1, V. campbellii LuxR (Vibrio harveyi, UniProt P21308); assay: qRT-PCR and western blots in wild-type V. campbellii; assay type: cell-based
T1 construct: expressed in transfected cells; host or cells: E. coli DH10B with pKM699 and reporter pJV064
T1 sequence (P21308 whole entry): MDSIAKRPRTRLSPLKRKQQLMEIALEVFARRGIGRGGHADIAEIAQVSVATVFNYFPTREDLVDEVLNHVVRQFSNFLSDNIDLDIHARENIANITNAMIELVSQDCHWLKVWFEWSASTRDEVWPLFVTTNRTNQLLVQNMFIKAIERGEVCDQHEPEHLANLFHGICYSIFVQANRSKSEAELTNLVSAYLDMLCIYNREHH
From the text: The Qstatin-treated regulon overlapped with the SmcR regulon by more than 50%, with similar gene expression fold-changes. […] This is important to note because LuxR and HapR proteins are known to autorepress their own expression. To test the effects of adding inhibitors to V. campbellii LuxR, we added 10A, 10B, and 10C to wild-type V. campbellii and used qRT-PCR and western blots to examine the effects on luxR transcript and protein levels. We also examined the transcript levels for luxC and 05222 genes that are directly activated or repressed by LuxR, respectively.
All PCR reactions were performed using Phusion HF polymerase (NEB). T4 polynucleotide kinase (T4 PNK) used in EMSAs and all other enzymes were purchased from NEB and used according to manufacturer's instructions. Site-directed mutagenesis for construction of plasmids expressing mutant proteins was carried out using the Agilent QuikChange II XL Site-Directed Mutagenesis Kit. All oligonucleotides were purchased from Integrated DNA Technologies (IDT).ALL plasmid constructs were confirmed by DNA sequencing (Eurofins). Cloning details for plasmids are available upon request. Western blot analysis was performed as previously described (van Kessel et al., 2013b), except that new anti-LuxR antibodies were generated through Cocalico against purified LuxR protein. In addition, the western blots were probed with anti-RpoB (Neoclone).
Then cells were induced with 50 μM IPTG and grown under the same conditions until cells reached an OD600 of approximately 1, at which 5 mL of cells were collected by centrifugation and frozen in liquid N2. RNA was extracted using a Trizol/chloroform extraction protocol previously described (Rutherford et al., 2011). Quantitative real-time PCR (qRT-PCR) was performed as previously described (Chaparian et al., 2016). Samples were normalized to the internal standard hfq gene. The ΔΔCT values were used to analyze data from three independent biological replicates. Symbols on graphs represent the mean values and error bars represent the standard deviations. All statistical analysis was performed with functions from GraphPad Prism version 8.

[5] = system: PluxC-gfp reporter in V. parahaemolyticus; assay: PluxC-gfp reporter in V. parahaemolyticus strains; details: Vibrio parahaemolyticus
V. campbellii LuxR [6] = target: T1, V. campbellii LuxR; assay: E. coli dual-color bioassay (pKM699 LuxR, pJV064 reporter); assay type: cell-based; details: for Inhibition of LuxR in the E. coli bioassay (in words): GFP and mCherry reporters
From the text: Previously, we developed a bioassay that consists of a dual-color fluorescent reporter plasmid that reports both LuxR activities: the luxCDABE promoter is activated by LuxR and drives expression of gfp, and the VIBHAR_05222 promoter is repressed by LuxR and drives expression of mCherry (van Kessel et al., 2013b) (FIG. 2A). We used this reporter plasmid in an E. coli strain that also contains a plasmid expressing LuxR from its native promoter.
A bioassay was developed to monitor LuxR function that consists of a dual-color reporter plasmid (pJV064) that reports both activities: the luxCDABE promoter is activated by LuxR and drives expression of gfp, and the 05222 promoter is repressed by LuxR and drives expression of mCherry (van Kessel, Ulrich et al. 2013). This reporter plasmid was used in an E. coli strain that also contains a plasmid (pKM699) expressing LuxR from its native promoter. E. coli cultures containing these two plasmids were grown at 30° C. in LB medium with chloramphenicol (10 μg/ml) and tetracycline (10 μg/ml) to select for the two plasmids. Compounds were added to the cultures at a range of concentrations, and the cultures were incubated for 16 hours shaking at 30° C.
The dual-promoter fluorescence reporter assays were performed using E. coli strain DH10B containing two plasmids: 1) plasmid pJV064 containing the PluxC fused to GFP and P05222fused to mCherry to assess LuxR transcriptional regulation, and 2) plasmid pKM699 expressing V. campbellii luxR under control of its native promoter or empty vector pLAFR2.

SmcR [7] = target: T2, SmcR (Vibrio vulnificus, UniProt Q9L8G8); details: Kim et al., 2018; cited from earlier work
T2 sequence (Q9L8G8 entry or part of it): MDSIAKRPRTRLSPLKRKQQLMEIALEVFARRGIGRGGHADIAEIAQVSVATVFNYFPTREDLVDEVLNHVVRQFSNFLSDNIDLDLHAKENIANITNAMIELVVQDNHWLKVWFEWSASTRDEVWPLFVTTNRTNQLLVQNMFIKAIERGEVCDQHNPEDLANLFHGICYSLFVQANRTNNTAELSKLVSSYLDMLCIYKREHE

SmcR [8] = target: T2, SmcR; assay: ITC analysis of SmcR interaction with inhibitors; assay type: binding, V. vulnificus
From the text: To test the validity of the modelling predictions for PTSP, we performed isothermal titration calorimetry (ITC) to determine the binding affinity of SmcR and LuxR for PTSP. […] We noted that PTSP binding to both LuxR and SmcR had lower entropy and enthalpy compared to SmcR binding to Qstatin. […] Thus, we conclude that the efficacy of PTSP inhibition in vivo in these two Vibrio species correlates to the binding affinity determined in vitro for these two proteins.
SmcR and LuxR were purified as described previously. EMSAs were conducted as described previously using oligonucleotides corresponding to the luxC and vvpE promoter sequences. ITC analysis was conducted using purified LuxR or His-tagged SmcR, each in gel-filtration buffer (25 mM Tris pH 7.5, 300 mM NaCl, 0.5 mM EDTA, 1 mM DTT, 2% DMSO). All molecules analyzed were diluted in the same buffer. The samples were degassed for 10 min by vacuum aspiration. Titrations were performed on a Nano-ITC (TA Instruments). […] Thermograms were analyzed using NanoAnalyze software with the independent binding model.

SmcR regulon = details: cited from earlier work
[9] = system: V. campbellii, V. parahaemolyticus, and V. vulnificus; details: cited from earlier work
[10] = ATCC25920, read-out: Inhibition (IC50) of the PluxC-gfp reporter, Vcamp ATCC 25920
[11] = read-out: Inhibition (IC50) of the PluxC-gfp reporter, Vcamp BB120
[12] = read-out: Inhibition (IC50) of the PluxC-gfp reporter, Vcamp HY01
[13] = ATCC27562, read-out: Inhibition (IC50) of the PluxC-gfp reporter, Vvul ATCC 27562
[14] = read-out: Inhibition (IC50) of the PluxC-gfp reporter, Vvul CMPC6
[15] = read-out: Inhibition (IC50) of the PluxC-gfp reporter, Vvul YJ016
[16] = read-out: Inhibition (IC50) of the PluxC-gfp reporter, Vcoral OCN 008
[17] = read-out: Inhibition (IC50) of the PluxC-gfp reporter, Vcoral OCN 014
[18] = read-out: Inhibition (IC50) of the PluxC-gfp reporter, Vpara 12-297/B
[19] = read-out: Inhibition (IC50) of the PluxC-gfp reporter, Vpara D4
[20] = read-out: Inhibition (IC50) of the PluxC-gfp reporter, Vpara RIMD 2210633
[21] = read-out: IC50 in the bioassay (approximate)

| Structure (SMILES) | IC50 [1, 10] | IC50 [1, 11] | IC50 [1, 12] | IC50 [2, 13] | IC50 [2, 14] | IC50 [2, 15] | IC50 [3, 16] | IC50 [3, 17] | IC50 [5, 18] | IC50 [5, 19] | IC50 [5, 20] | Inhibition of LuxR in the E. coli bioassay (in words) (V. campbellii LuxR [6]) | IC50 (V. campbellii LuxR [6]; [21]) | further results |
| --- | --- | --- | --- | --- | --- | --- | --- | --- | --- | --- | --- | --- | --- | --- |
| O=S(=O)(c1ccc(Cl)s1)n1ccc(-c2ccccc2)n1 [Compound 10C, 1-((5-chlorothiophen-2-yl)sulfonyl)-3-phenyl-1H-pyrazole] | 90 nM | 710 nM | 160 nM | 0.75 nM | 60.5 nM | 5.46 nM | 1070 nM | 2420 nM | 1040 nM | 1280 nM | 680 nM | most potent | 1000 to 2000 nM | IC50 values lower than Qstatin (Vibrio strains): ~10 fold; Growth rate or growth yield (V. campbellii): did not alter growth rate or growth yield; Growth rate or growth yield (V. vulnificus): did not alter growth rate or growth yield; luxC transcripts (V. campbellii LuxR [4]; qRT-PCR, to levels in a ΔluxR strain): significantly decreased; 05222 transcripts (V. campbellii LuxR [4]; qRT-PCR, wild-type cultures): significantly increased; LuxR protein level (V. campbellii LuxR [4]; western blot, wild-type V. campbellii): visible increase |
| O=S(=O)(c1ccc(Br)s1)n1cccn1 [Qstatin, 1-((5-bromothiophen-2-yl)sulfonyl)-1H-pyrazole, reference compound] | 800 nM | 4000 nM | 1200 nM | 500 nM | 2100 nM | 900 nM | 11600 nM | 22200 nM | 1700 nM | 3000 nM | 2300 nM | inhibited LuxR activity | 5000 to 10000 nM and 10000 to 20000 nM | IC50 ([1]; read-out: IC50, V. campbellii BB120, luxCDABE): 1300 nM; IC50 ([2]; ATCC27562, read-out: IC50, V. vulnificus ATCC 27562, luxCDABE reporter plasmid): 400 nM; Effect on SmcR DNA binding affinity (SmcR [7]): very little effect; IC50 ([3]; read-out: IC50, V. coralliilyticus OCN008, luxCDABE reporter plasmid): 3600 nM; Ka (SmcR [8]): 1.36e+06 M⁻¹; ΔG (SmcR [8]): -8.37 kcal/mol and -8.365 kcal/mol; ΔH (SmcR [8]): -19.58 kcal/mol; ΔS (SmcR [8]): −157.30 J/mol · K; −TΔS (SmcR [8]): 11.21 kcal/mol; Kd (SmcR [8]; 25° C., read-out: Kd): 738 nM; Off-target effects in the ΔsmcR strain (SmcR regulon; RNA-seq, ΔsmcR strain): no significant off-target effects; Overlap of Qstatin-treated regulon with the SmcR regulon (SmcR regulon; RNA-seq): more than 50%; Increase of smcR transcript levels (SmcR regulon; wild-type V. vulnificus): 2.5 fold; Inhibition of pathogenesis in shrimp infection assay [9]: inhibits pathogenesis; IC50 ([5]; read-out: IC50, V. parahaemolyticus RIMD2210633, luxCDABE reporter plasmid): 2800 nM; IC50 (V. campbellii LuxR [6]; Table 2, titration, 16 hours, read-out: Inhibition (IC50) of GFP production by LuxR in E. coli bioassay): 5000 nM |
